Measured values taken from ChEMBL document CHEMBL3045762, “Studies on arylfuran derivatives. Part XI. Synthesis, characterisation and biological studies on some Mannich bases carrying 2,4-dichlorophenylfurfural moiety” (2000).
The source made the active and inactive calls. No cut-off for these calls is given here.

Legend:
Digitaria sanguinalis [1] = assay: Post-emergence herbicidal activity against Digitaria sanguinalis (hairy crabgrass) assessed as reduction of seed germination at 0.48 ppm after 5 to 25 days by pot test; assay type: functional, organism-based
Amaranthus viridis [2] = assay: Post-emergence herbicidal activity against Amaranthus viridis assessed as reduction of seed germination at 0.48 ppm after 5 to 25 days by pot test; assay type: functional, organism-based
Cynodon dactylon [3] = assay: Post-emergence herbicidal activity against Cynodon dactylon assessed as reduction of seed germination at 0.48 ppm after 5 to 25 days by pot test; assay type: functional, organism-based
Parthenium hysterophorus [4] = assay: Post-emergence herbicidal activity against Parthenium hysterophorus assessed as reduction of seed germination at 0.48 ppm after 5 to 25 days by pot test; assay type: functional, organism-based
Euphorbia hirta [5] = assay: Post-emergence herbicidal activity against Euphorbia hirta assessed as reduction of seed germination at 0.48 ppm after 5 to 25 days by pot test; assay type: functional, organism-based
Amaranthus viridis [6] = assay: Pre-emergence herbicidal activity against Amaranthus viridis assessed as reduction of seed germination at 1.50 ppm after 7 to 21 days by pot test; assay type: functional, organism-based
Digitaria sanguinalis [7] = assay: Pre-emergence herbicidal activity against Digitaria sanguinalis (hairy crabgrass) assessed as reduction of seed germination at 1.50 ppm after 7 to 21 days by pot test; assay type: functional, organism-based
Fusarium sp. = assay: Antifungal activity against Fusarium sp. assessed as fungal growth (reference value: 77 mm); assay type: functional
Euphorbia hirta [8] = assay: Post-emergence herbicidal activity against Euphorbia hirta assessed as reduction of seed germination at 1000 ppm after 5 to 25 days by pot test; assay type: functional, organism-based
Cynodon dactylon [9] = assay: Post-emergence herbicidal activity against Cynodon dactylon assessed as reduction of seed germination at 1000 ppm after 5 to 25 days by pot test; assay type: functional, organism-based
Amaranthus viridis [10] = assay: Post-emergence herbicidal activity against Amaranthus viridis assessed as reduction of seed germination at 1000 ppm after 5 to 25 days by pot test; assay type: functional, organism-based
Amaranthus viridis [11] = assay: Pre-emergence herbicidal activity against Amaranthus viridis assessed as reduction of seed germination at 1000 ppm after 7 to 21 days by pot test; assay type: functional, organism-based
Parthenium hysterophorus [12] = assay: Post-emergence herbicidal activity against Parthenium hysterophorus assessed as reduction of seed germination at 1000 ppm after 5 to 25 days by pot test; assay type: functional, organism-based
Digitaria sanguinalis [13] = assay: Pre-emergence herbicidal activity against Digitaria sanguinalis (hairy crabgrass) assessed as reduction of seed germination at 1000 ppm after 7 to 21 days by pot test; assay type: functional, organism-based
Alternaria solani = assay: Antifungal activity against Alternaria solani assessed as fungal growth (reference value: 52 mm); assay type: functional
Plasmopara viticola = assay: Antifungal activity against Plasmopara viticola assessed as infection (reference value: 100%); assay type: functional
Digitaria sanguinalis [14] = assay: Post-emergence herbicidal activity against Digitaria sanguinalis (hairy crabgrass) assessed as reduction of seed germination at 1000 ppm after 5 to 25 days by pot test; assay type: functional, organism-based
Cynodon dactylon [15] = assay: Post-emergence herbicidal activity against Cynodon dactylon assessed as reduction of seed germination at 1.22 ppm after 5 to 25 days by pot test; assay type: functional, organism-based
Parthenium hysterophorus [16] = assay: Post-emergence herbicidal activity against Parthenium hysterophorus assessed as reduction of seed germination at 1.22 ppm after 5 to 25 days by pot test; assay type: functional, organism-based
Euphorbia hirta [17] = assay: Post-emergence herbicidal activity against Euphorbia hirta assessed as reduction of seed germination at 1.22 ppm after 5 to 25 days by pot test; assay type: functional, organism-based
Amaranthus viridis [18] = assay: Post-emergence herbicidal activity against Amaranthus viridis assessed as reduction of seed germination at 1.22 ppm after 5 to 25 days by pot test; assay type: functional, organism-based
Digitaria sanguinalis [19] = assay: Post-emergence herbicidal activity against Digitaria sanguinalis (hairy crabgrass) assessed as reduction of seed germination at 1.22 ppm after 5 to 25 days by pot test; assay type: functional, organism-based
Amaranthus viridis [20] = assay: Pre-emergence herbicidal activity against Amaranthus viridis assessed as reduction of seed germination at 1 ppm after 7 to 21 days by pot test; assay type: functional, organism-based
Digitaria sanguinalis [21] = assay: Pre-emergence herbicidal activity against Digitaria sanguinalis (hairy crabgrass) assessed as reduction of seed germination at 1 ppm after 7 to 21 days by pot test; assay type: functional, organism-based

C[n+]1ccc(-c2cc[n+](C)cc2)cc1
Activity (Digitaria sanguinalis [1]): Active | Activity (Amaranthus viridis [2]): Active | Activity (Cynodon dactylon [3]): Active | Activity (Parthenium hysterophorus [4]): Active | Activity (Euphorbia hirta [5]): Active

CCNc1nc(Cl)nc(NC(C)C)n1
Activity (Amaranthus viridis [6]): Active | Activity (Digitaria sanguinalis [7]): Active

CCCCC(O)(Cn1cncn1)c1ccc(Cl)cc1Cl (stereo not given) [HEXACONAZOLE]
Activity (Fusarium sp.): 8 mm

Fc1ccc(NCn2nc(COc3ccc(Cl)cc3Cl)n(/N=C/c3ccc(-c4ccc(Cl)cc4Cl)o3)c2=S)cc1Cl
Activity (Fusarium sp.): 73 mm | Activity (Euphorbia hirta [8]): inactive | Activity (Cynodon dactylon [9]): inactive | Activity (Amaranthus viridis [10]): inactive | Activity (Amaranthus viridis [11]): inactive | Activity (Parthenium hysterophorus [12]): inactive | Activity (Digitaria sanguinalis [13]): inactive | Activity (Alternaria solani): 51 mm | Activity (Plasmopara viticola): 100% | Activity (Digitaria sanguinalis [14]): inactive

S=c1[nH]nc(COc2ccc(Cl)cc2Cl)n1/N=C/c1ccc(-c2ccc(Cl)cc2Cl)o1
Activity (Fusarium sp.): 80 mm | Activity (Euphorbia hirta [8]): inactive | Activity (Cynodon dactylon [9]): inactive | Activity (Amaranthus viridis [10]): inactive | Activity (Amaranthus viridis [11]): inactive | Activity (Parthenium hysterophorus [12]): inactive | Activity (Digitaria sanguinalis [13]): inactive | Activity (Alternaria solani): 58 mm | Activity (Plasmopara viticola): 100% | Activity (Digitaria sanguinalis [14]): inactive

Cc1cc(OCc2nn(CNc3ccc(F)c(Cl)c3)c(=S)n2/N=C/c2ccc(-c3ccc(Cl)cc3Cl)o2)ccc1Cl
Activity (Fusarium sp.): 72 mm | Activity (Euphorbia hirta [8]): inactive | Activity (Cynodon dactylon [9]): inactive | Activity (Amaranthus viridis [10]): inactive | Activity (Amaranthus viridis [11]): inactive | Activity (Parthenium hysterophorus [12]): inactive | Activity (Digitaria sanguinalis [13]): inactive | Activity (Alternaria solani): 49 mm | Activity (Plasmopara viticola): 100% | Activity (Digitaria sanguinalis [14]): inactive

O=C(O)CNCP(=O)(O)O
Activity (Cynodon dactylon [15]): Active | Activity (Parthenium hysterophorus [16]): Active | Activity (Euphorbia hirta [17]): Active | Activity (Amaranthus viridis [18]): Active | Activity (Digitaria sanguinalis [19]): Active

S=c1[nH]nc(COc2ccccc2Cl)n1/N=C/c1ccc(-c2ccc(Cl)cc2Cl)o1
Activity (Fusarium sp.): 77.5 mm | Activity (Euphorbia hirta [8]): inactive | Activity (Cynodon dactylon [9]): inactive | Activity (Amaranthus viridis [10]): inactive | Activity (Amaranthus viridis [11]): inactive | Activity (Parthenium hysterophorus [12]): inactive | Activity (Digitaria sanguinalis [13]): inactive | Activity (Alternaria solani): 66 mm | Activity (Plasmopara viticola): 100% | Activity (Digitaria sanguinalis [14]): inactive

Fc1ccc(NCn2nc(COc3ccccc3Cl)n(/N=C/c3ccc(-c4ccc(Cl)cc4Cl)o3)c2=S)cc1Cl
Activity (Fusarium sp.): 75 mm | Activity (Euphorbia hirta [8]): inactive | Activity (Cynodon dactylon [9]): inactive | Activity (Amaranthus viridis [10]): inactive | Activity (Amaranthus viridis [11]): inactive | Activity (Parthenium hysterophorus [12]): inactive | Activity (Digitaria sanguinalis [13]): inactive | Activity (Alternaria solani): 57 mm | Activity (Plasmopara viticola): 100% | Activity (Digitaria sanguinalis [14]): inactive

S=c1[nH]nc(COc2ccc(Cl)cc2)n1/N=C/c1ccc(-c2ccc(Cl)cc2Cl)o1
Activity (Fusarium sp.): 79 mm | Activity (Euphorbia hirta [8]): inactive | Activity (Cynodon dactylon [9]): inactive | Activity (Amaranthus viridis [10]): inactive | Activity (Amaranthus viridis [11]): inactive | Activity (Parthenium hysterophorus [12]): inactive | Activity (Digitaria sanguinalis [13]): inactive | Activity (Alternaria solani): 60 mm | Activity (Plasmopara viticola): 100% | Activity (Digitaria sanguinalis [14]): inactive

Cc1cc(OCc2n[nH]c(=S)n2/N=C/c2ccc(-c3ccc(Cl)cc3Cl)o2)ccc1Cl
Activity (Fusarium sp.): 76 mm | Activity (Euphorbia hirta [8]): inactive | Activity (Cynodon dactylon [9]): inactive | Activity (Amaranthus viridis [10]): inactive | Activity (Amaranthus viridis [11]): inactive | Activity (Parthenium hysterophorus [12]): inactive | Activity (Digitaria sanguinalis [13]): inactive | Activity (Alternaria solani): 56 mm | Activity (Plasmopara viticola): 100% | Activity (Digitaria sanguinalis [14]): inactive

CCC(CC)Nc1c([N+](=O)[O-])cc(C)c(C)c1[N+](=O)[O-]
Activity (Amaranthus viridis [20]): Active | Activity (Digitaria sanguinalis [21]): Active

Fc1ccc(NCn2nc(COc3ccc(Cl)cc3)n(/N=C/c3ccc(-c4ccc(Cl)cc4Cl)o3)c2=S)cc1Cl
Activity (Fusarium sp.): 75 mm | Activity (Euphorbia hirta [8]): inactive | Activity (Cynodon dactylon [9]): inactive | Activity (Amaranthus viridis [10]): inactive | Activity (Amaranthus viridis [11]): inactive | Activity (Parthenium hysterophorus [12]): inactive | Activity (Digitaria sanguinalis [13]): inactive | Activity (Alternaria solani): 52 mm | Activity (Plasmopara viticola): 100% | Activity (Digitaria sanguinalis [14]): inactive
